The values below come from patent publication US11878966B2, “Substituted 4-benzyl and 4-benzoyl piperidine derivates” (89BIO LTD, priority 2015, dated 2024).

SMILES strings stand for the structures.

This assay deals with T1, recombinant human baculovirus-expressed GST-tagged FASN (Homo sapiens, UniProt P49327).
T1 construct: GST; host or cells: baculovirus expression system (insect cells implied)
Kind of assay: FASN enzyme activity assay: fluorescence-based detection of CoA with CPM. Conditions: 5 nM FASN, 150 μM NADPH, 10 μM acetyl-CoA, 25 μM malonyl-CoA, 90 minutes incubation. The format is biochemical. The source says: FASN Enzyme activity may be determined by detecting coenzyme A (CoA), a product of FASN-catalyzed synthesis of palmitate from acetyl-CoA and malonyl-CoA with NADPH as a cofactor. The assay is fluorescence-based and measures the interaction of free CoA with 7-diethylamino-3-(4′-malemimidylphenyl)-4-methylcoumarin (CPM; Life Technologies, CA) as described in Chung et al (2008). The coumarin derivative CPM contains a thiol-reactive maleimide that becomes fluorescent upon interaction with the sulfhydryl group of CoA.
For the example compounds described herein, the reaction was performed in 384-well low volume non-binding platews (Corning, NY) using recombinant human baculovirus-expressed GST-tagged FASN. The 20-μL assay mixture contained 50 mM HEPES (pH 7.5), 5 nM FASN, 150 μM NADPH (Sigma, St. Louis, MO), 10 μM acetyl-CoA (Sigma), 25 μM malonyl-CoA (Sigma) and test compound [diluted in dimethyl sulfoxide (DMSO); 0.5% DMSO final in assay after 100 nL addition]. See, Chung et al.; “A fluorescence-based thiol quantification assay for ultra-high-throughput screening for inhibitors of coenzyme A production,” Assay Drug Dev Tech 2008; 6:361-374.
The reaction was initiated by adding malonyl-CoA, followed by incubation for 90 minutes at […]. A stock solution of the CPM reagent was prepared in DMSO al 66 μM and stored at […]. To detect CoA produced in the FASN reaction, the CPM stock was diluted to 50 μM in 70% ethanol and added at 4 μL/well to the assay place. The reaction mixture was then incubated for 30 minutes. Fluorescence was measured using the EnVision™ 2102 multi-label plate reader (PerkinElmer, Waltham, MA) utilizing a general dual mirror, a 390 nm excitation filter and a 530 nm emission filter. Data analysis was performed using ActivityBase (IDBS, Guilford, UK). IC50 values were calculated by plotting the percent inhibition versus log 10 of the concentration of the compound, and fitting to the nonlinear regression sigmoidal dose-response (variable slope) equation in XLFit (IDBS).

T1 sequence (P49327 whole entry): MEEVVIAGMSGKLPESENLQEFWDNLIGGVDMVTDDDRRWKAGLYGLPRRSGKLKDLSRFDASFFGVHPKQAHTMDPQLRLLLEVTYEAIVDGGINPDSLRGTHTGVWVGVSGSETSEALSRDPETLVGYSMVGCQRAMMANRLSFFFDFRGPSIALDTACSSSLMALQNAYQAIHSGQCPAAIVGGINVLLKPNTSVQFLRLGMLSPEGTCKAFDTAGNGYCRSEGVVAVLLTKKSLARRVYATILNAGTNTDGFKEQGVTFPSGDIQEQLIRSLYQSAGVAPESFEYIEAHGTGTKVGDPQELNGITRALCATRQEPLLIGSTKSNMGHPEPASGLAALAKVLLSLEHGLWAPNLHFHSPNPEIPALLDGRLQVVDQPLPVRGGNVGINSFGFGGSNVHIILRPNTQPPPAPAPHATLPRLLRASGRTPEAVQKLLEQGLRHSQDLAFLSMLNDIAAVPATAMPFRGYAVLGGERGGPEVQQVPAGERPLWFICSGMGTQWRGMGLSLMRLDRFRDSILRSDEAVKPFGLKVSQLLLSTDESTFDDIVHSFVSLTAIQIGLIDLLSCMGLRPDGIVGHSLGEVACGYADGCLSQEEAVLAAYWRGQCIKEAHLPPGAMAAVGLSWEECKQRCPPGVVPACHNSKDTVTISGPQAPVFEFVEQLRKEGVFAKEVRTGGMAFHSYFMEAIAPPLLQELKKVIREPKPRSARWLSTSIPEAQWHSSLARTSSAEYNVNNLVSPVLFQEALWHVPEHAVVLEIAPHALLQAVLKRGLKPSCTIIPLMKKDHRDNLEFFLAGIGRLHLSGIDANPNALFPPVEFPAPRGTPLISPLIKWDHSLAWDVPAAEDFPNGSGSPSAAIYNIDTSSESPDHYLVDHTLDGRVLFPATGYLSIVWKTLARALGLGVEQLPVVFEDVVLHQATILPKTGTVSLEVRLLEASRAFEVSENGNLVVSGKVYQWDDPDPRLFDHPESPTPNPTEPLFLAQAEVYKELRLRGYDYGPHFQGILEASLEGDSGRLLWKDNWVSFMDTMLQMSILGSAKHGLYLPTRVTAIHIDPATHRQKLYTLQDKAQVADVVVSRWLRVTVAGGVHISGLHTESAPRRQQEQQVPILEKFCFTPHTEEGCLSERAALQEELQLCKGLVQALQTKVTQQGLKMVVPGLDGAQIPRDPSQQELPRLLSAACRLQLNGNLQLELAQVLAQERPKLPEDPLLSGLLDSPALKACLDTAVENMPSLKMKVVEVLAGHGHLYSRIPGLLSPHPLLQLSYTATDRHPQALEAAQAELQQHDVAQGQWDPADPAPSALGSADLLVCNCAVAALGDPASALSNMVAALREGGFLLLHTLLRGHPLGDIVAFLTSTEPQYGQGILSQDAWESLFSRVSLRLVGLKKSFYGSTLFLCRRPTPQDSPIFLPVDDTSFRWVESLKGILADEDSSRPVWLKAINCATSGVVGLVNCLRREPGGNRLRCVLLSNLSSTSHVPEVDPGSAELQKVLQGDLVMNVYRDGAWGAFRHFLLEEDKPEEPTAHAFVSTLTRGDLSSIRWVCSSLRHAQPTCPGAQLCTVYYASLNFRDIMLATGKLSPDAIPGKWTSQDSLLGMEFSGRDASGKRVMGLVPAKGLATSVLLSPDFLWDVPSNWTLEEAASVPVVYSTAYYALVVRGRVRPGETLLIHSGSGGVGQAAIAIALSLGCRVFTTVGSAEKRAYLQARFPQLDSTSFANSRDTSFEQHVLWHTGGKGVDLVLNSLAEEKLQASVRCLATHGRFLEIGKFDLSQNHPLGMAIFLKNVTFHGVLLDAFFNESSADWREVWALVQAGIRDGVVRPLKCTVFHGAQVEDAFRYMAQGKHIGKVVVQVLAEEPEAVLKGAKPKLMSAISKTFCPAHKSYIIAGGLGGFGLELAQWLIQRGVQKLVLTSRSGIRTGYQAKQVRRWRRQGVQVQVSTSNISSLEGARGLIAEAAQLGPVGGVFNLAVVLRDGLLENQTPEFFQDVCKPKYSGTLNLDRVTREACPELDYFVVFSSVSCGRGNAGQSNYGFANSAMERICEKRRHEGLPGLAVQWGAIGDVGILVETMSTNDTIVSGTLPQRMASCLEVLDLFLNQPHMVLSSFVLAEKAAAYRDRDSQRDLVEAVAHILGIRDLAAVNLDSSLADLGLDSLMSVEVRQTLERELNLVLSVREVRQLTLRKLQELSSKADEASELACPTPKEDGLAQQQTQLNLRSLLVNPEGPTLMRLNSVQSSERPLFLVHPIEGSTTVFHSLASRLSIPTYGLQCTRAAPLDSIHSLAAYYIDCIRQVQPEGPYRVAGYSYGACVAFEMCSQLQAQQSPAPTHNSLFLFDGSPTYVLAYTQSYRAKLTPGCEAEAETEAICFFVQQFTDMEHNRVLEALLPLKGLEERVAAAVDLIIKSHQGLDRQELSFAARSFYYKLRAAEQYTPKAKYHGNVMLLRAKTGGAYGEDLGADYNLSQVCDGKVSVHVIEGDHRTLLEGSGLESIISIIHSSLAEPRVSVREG

A word on the IC50: it is the point on the concentration scale where inhibition reaches its midpoint. Consider `O=C([C@H]1CCCO1)N1CCC(C(F)(F)c2ccc(-c3cnc4ccccc4c3)cc2)CC1` [Example 18, {4-[Difluoro-(4-quinolin-3-yl-phenyl)-methyl]-piperidin-1-yl}-(R)-tetrahydrofuran-2-yl-methanone], for which the IC50 lay in the range of 1 to 99 nM.

For the molecule `CCC(=O)N1CCC(Cc2ccc(-c3cnc4ccccc4c3Cl)cc2)CC1` [Example 19, 1-{4-[4-(4-Chloroquinolin-3-yl)-benzyl]-piperidin-1-yl}-propan-1-one], the IC50 lay in the range of 1 to 99 nM.

`O=C(C1CC1)N1CCC(Cc2ccc(-c3cnc4ccccc4c3Cl)cc2)CC1` [Example 20, {4-[4-(4-Chloroquinolin-3-yl)-benzyl]-piperidin-1-yl}-cyclopropylmethanone]: the IC50 fell in the range of 1 to 99 nM.

For `O=C(C1CC(F)(F)C1)N1CCC(Cc2ccc(-c3cnc4ccccc4c3Cl)cc2)CC1` [Example 21, {4-[4-(4-Chloroquinolin-3-yl)-benzyl]-piperidin-1-yl}-(3,3-difluorocyclobutyl)-methanone], the IC50 was 1000 to 10000 nM.

As to `O=C([C@H]1CCCO1)N1CCC(Cc2ccc(-c3cnc4ccccc4c3Cl)cc2)CC1` [Example 22, {4-[4-(4-Chloroquinolin-3-yl)-benzyl]-piperidin-1-yl}-(R)-tetrahydrofuran-2-yl-methanone], the IC50 is 1 to 99 nM.

Consider `CCC(=O)N1CCC(Cc2ccc(-c3ccc4cccnc4c3C)cc2)CC1` [Example 23, 1-{4-[4-(8-Methylquinolin-7-yl)-benzyl]-piperidin-1-yl}-propan-1-one], for which the IC50 fell in the range of 1 to 99 nM.

For `Cc1c(-c2ccc(CC3CCN(C(=O)C4CC4)CC3)cc2)ccc2cccnc12` [Example 24, Cyclopropyl-{4-[4-(8-methylquinolin-7-yl)-benzyl]-piperidin-1-yl}-methanone], the IC50 was 1 to 99 nM.

On to `Cc1c(-c2ccc(CC3CCN(C(=O)[C@H]4CCCO4)CC3)cc2)ccc2cccnc12` [Example 25, {4-[4-(8-Methylquinolin-7-yl)-benzyl]-piperidin-1-yl}-(R)-tetrahydrofuran-2-yl-methanone], for which the IC50 lay within 1 to 99 nM.

Take `CCC(=O)N1CCC(Cc2ccc(-c3cc4ccccc4cn3)cc2)CC1` [Example 26, 1-[4-(4-Isoquinolin-3-yl-benzyl)-piperidin-1-yl]-propan-1-one]: the IC50 was 1000 to 10000 nM.

With `O=C(C1CC1)N1CCC(Cc2ccc(-c3cc4ccccc4cn3)cc2)CC1` [Example 27, Cyclopropyl-[4-(4-isoquinolin-3-yl-benzyl)-piperidin-1-yl]-methanone], the IC50 lay within 1000 to 10000 nM.

Turning to `O=C([C@H]1CCCO1)N1CCC(Cc2ccc(-c3cc4ccccc4cn3)cc2)CC1` [Example 28, [4-(4-Isoquinolin-3-yl-benzyl)-piperidin-1-yl]-(R)-tetrahydrofuran-2-yl-methanone], the IC50 was 1 to 99 nM.

For the molecule `CCC(=O)N1CCC(Cc2ccc(-c3ccc4cccnc4c3Cl)cc2)CC1` [Example 29, 1-{4-[4-(8-Chloroquinolin-7-yl)-benzyl]-piperidin-1-yl}-propan-1-one], the IC50 was in the range of 1 to 99 nM.

In the case of `O=C(C1CC1)N1CCC(Cc2ccc(-c3ccc4cccnc4c3Cl)cc2)CC1` [Example 30, {4-[4-(8-Chloroquinolin-7-yl)-benzyl]-piperidin-1-yl}-cyclopropylmethanone], the IC50 was 1 to 99 nM.

With `O=C([C@H]1CCCO1)N1CCC(Cc2ccc(-c3ccc4cccnc4c3Cl)cc2)CC1` [Example 31, {4-[4-(8-Chloroquinolin-7-yl)-benzyl]-piperidin-1-yl}-(R)-tetrahydrofuran-2-yl-methanone], the IC50 was 1 to 99 nM.

Consider `CCC(=O)N1CCC(Cc2ccc(-c3ccc4cccnc4c3OC)cc2)CC1` [Example 32, 1-{4-[4-(8-Methoxyquinolin-7-yl)-benzyl]-piperidin-1-yl}-propan-1-one], for which the 50% inhibitory concentration (IC50) was in the range of 1 to 99 nM.

Take `COc1c(-c2ccc(CC3CCN(C(=O)C4CC4)CC3)cc2)ccc2cccnc12` [Example 33, Cyclopropyl-{4-[4-(8-methoxyquinolin-7-yl)-benzyl]-piperidin-1-yl}-methanone]: the IC50 was 1 to 99 nM.

For the molecule `COc1c(-c2ccc(CC3CCN(C(=O)[C@H]4CCCO4)CC3)cc2)ccc2cccnc12` [Example 34, {4-[4-(8-Methoxyquinolin-7-yl)-benzyl]-piperidin-1-yl}-(R)-tetrahydrofuran-2-yl-methanone], the IC50 was 1 to 99 nM.

With `CCC(=O)N1CCC(Cc2ccc(-c3ccc4c(C)nccc4c3)cc2)CC1` [Example 35, 1-{4-[4-(1-methylisoquinolin-6-yl)-benzyl]-piperidin-1-yl}-propan-1-one], the half-maximal inhibitory concentration (IC50) is 1 to 99 nM.

On to `Cc1nccc2cc(-c3ccc(CC4CCN(C(=O)C5CC5)CC4)cc3)ccc12` [Example 36, Cyclopropyl-{4-[4-(1-methyl-isoquinolin-6-yl)-benzyl]-piperidin-1-yl}-methanone], for which the IC50 was in the range of 1 to 99 nM.

Consider `Cc1nccc2cc(-c3ccc(CC4CCN(C(=O)[C@H]5CCCO5)CC4)cc3)ccc12` [Example 37, {4-[4-(1-methylisoquinolin-6-yl)-benzyl]-piperidin-1-yl}-(R)-tetrahydro-furan-2-yl-methanone], for which the IC50 fell in the range of 1 to 99 nM.

As for `CCC(=O)N1CCC(C(C)c2ccc(-c3cnc4ccccc4c3)cc2)CC1` (stereo not shown) [Example 39, 1-(4-(1-(4-(quinolin-3-yl)phenyl)ethyl)piperidin-1-yl)propan-1-one], the IC50 lay within 1 to 99 nM.

Turning to `CCC(=O)N1CCC(C(C)c2ccc(-c3ccc4cccnc4c3)cc2)CC1` (stereo not shown) [Example 42, 1-{4-[1-(4-Quinolin-7-yl-phenyl)-ethyl]-piperidin-1-yl}-propan-1-one], the IC50 fell in the range of 1 to 99 nM.

For the molecule `CCC(=O)N1CCC(C(N)c2ccc(-c3cnc4ccccc4c3)cc2)CC1` (stereo not shown) [Example 43, 1-{4-[amino-(4-quinolin-3-yl-phenyl)-methyl]-piperidin-1-yl}-propan-1-one], the concentration for half-maximal inhibition (IC50) was in the range of 1000 to 10000 nM.

Regarding `O=C(C1CC1)N1CCC(C2(c3ccc(-c4cnc5ccccc5c4)cc3)CC2)CC1` [Example 44, Cyclopropyl-{4-[1-(4-quinolin-3-yl-phenyl)-cyclopropyl]-piperidin-1-yl}-methanone], the IC50 fell in the range of 100 to 999 nM.

As for `O=C(C1CC1)N1CCC(C2(c3ccc(-c4ccc5cccnc5c4)cc3)CC2)CC1` [Example 45, Cyclopropyl-{4-[1-(4-quinolin-7-yl-phenyl)-cyclopropyl]-piperidin-1-yl}-methanone], the IC50 is 100 to 999 nM.

Turning to `CCC(=O)N1CCC(/C(=N\OC)c2ccc(-c3cnc4ccccc4c3)cc2)CC1` [Example 46, 1-{4-[[(E:Z)-Methoxyimino]-(4-quinolin-3-yl-phenyl)-methyl]-piperidin-1-yl}-propan-1-one], the IC50 was in the range of 1 to 99 nM.

For `CCC(=O)N1CCC(C(CC)c2ccc(-c3cnc4ccccc4c3)cc2)CC1` (stereo not shown) [Example 47, 1-{4-[1-(4-Quinolin-3-yl-phenyl)-propyl]-piperidin-1-yl}-propan-1-one], the concentration for half-maximal inhibition (IC50) was in the range of 1 to 99 nM.

Regarding `CCC(=O)N1CCC(C(c2ccc(-c3cnc4ccccc4c3)cc2)C2CC2)CC1` (stereo not shown) [Example 48, 1-{4-[Cyclopropyl-(4-quinolin-3-yl-phenyl)-methyl]-piperidin-1-yl}-propan-1-one], the IC50 was 100 to 999 nM.

Consider `O=C(c1ccc(-c2cnc3ccccc3c2)cc1)C1CCN(C(=O)[C@H]2CCCO2)CC1` [Example 49, [4-(4-Quinolin-3-yl-benzoyl)-piperidin-1-yl]-(R)-tetrahydrofuran-2-yl-methanone], for which the IC50 fell in the range of 1 to 99 nM.

Regarding `CC(c1ccc(-c2ccc3cccnc3c2)cc1)C1CCN(C(=O)[C@H]2CCCO2)CC1` (stereo partly drawn) [Example 51, {4-[1-(4-Quinolin-7-yl-phenyl)-ethyl]-piperidin-1-yl}-(R)-tetrahydrofuran-2-yl-methanone], the half-inhibitory concentration (IC50) fell in the range of 1 to 99 nM.

As for `CC(c1ccc(-c2cnc3ccccc3c2)cc1)C1CCN(C(=O)[C@H]2CCCO2)CC1` (stereo partly drawn) [Example 52, {4-[1-(4-Quinolin-3-yl-phenyl)-ethyl]-piperidin-1-yl}-(R)-tetrahydrofuran-2-yl-methanone], the IC50 was 1 to 99 nM.

With `CCC(=O)N1CCC(C(NC(C)=O)c2ccc(-c3cnc4ccccc4c3)cc2)CC1` (stereo not shown) [Example 53, N-[(1-Propionylpiperidin-4-yl)-(4-quinolin-3-yl-phenyl)-methyl]-acetamide], the IC50 lay within 1000 to 10000 nM.

`CCCC(c1ccc(-c2cnc3ccccc3c2)cc1)C1CCN(C(=O)CC)CC1` (stereo not shown) [Example 54, 1-{4-[1-(4-Quinolin-3-yl-phenyl)-butyl]-piperidin-1-yl}-propan-1-one]: the IC50 lay in the range of 1 to 99 nM.

Take `CCC(=O)N1CCC(C(NC=O)c2ccc(-c3cnc4ccccc4c3)cc2)CC1` (stereo not shown) [Example 55, N-[(1-Propionylpiperidin-4-yl)-(4-quinolin-3-yl-phenyl)-methyl]-formamide]: the IC50 lay in the range of 1000 to 10000 nM.
